Results on one compound are retold here after patent US5360796A, “Imidazo[1,2-a]pyridinylalkyl phosphonic acid compounds for treatment of neurotoxic injury” (G. D. Searle & Co., priority 1991, dated 1994).

The target in one data set is AMPA. The experiment in a line: [3H]AMPA (QUIS) binding assay. As to conditions: 10 nM [3H]AMPA, 100 mM KSCN, synaptic plasma membranes, pH 7.4, 0-4° C., 10 min; read-out: NMDA Receptor Binding Data, Ki IC50 Binding AMPA. Set-up: species or system rat. The protocol:
Synaptic plasma membranes (SPM) were prepared as previously described [Monahah, J. B. and Michel, J., "Identification and Characterization of an N-methyl-D-aspartate-specific L[^3 H]glutamate Recognition Site in Synaptic Plasma Membranes, J. Neurochem., 48, 1699-1708 (1987)]. The SPM were stored at a concentration of 10-15 mg/ml in 0.32M sucrose, 0.5 mM EDTA, 1 mM MgSO4, 5 mM Tris/SO4, pH 7.4, under liquid nitrogen. The identity and purity of the subcellular fractions were confirmed by both electron microscopy and marker enzymes. Protein concentrations were determined by using a modification of the method of Lowry [Ohnishi, S. T. and Barr, J. K., "A Simplified Method of Quantitating Proteins using the Biuret and Phenol Reagents", Anal. Biochem., 86, 193-197 (1978)]. The SPM were treated identically for the [^3 H]AMPA (QUIS), [^3 H]kainate and sodium-dependent L-[^3 H]-glumatate binding assays. The SPM were thawed at room temperature, diluted twenty-fold with 50mM Tris/acetate, pH 7.4, incubated at 37° C. for 30 minutes, and centrifuged at 100,000 g for 15 minutes. The dilution, incubation, and centrifugation was repeated a total of three times. Prior to use in the NMDA-specific L-[^3 H]-glutamate binding assay the SPM were thawed, diluted twenty fold with 50 mM Tris/acetate, pH 7.4 containing 0.04% (v/v) Triton X-100, incubated for 30 minutes at 37° C. and centrifuged as described above. The Triton X-100 treated membranes were washed with 50 mM Tris/acetate, pH 7.4 and centrifuged at 100,000 g for 15 minutes a total of four times. […] The basic procedure for the receptor subclass binding assays was similar. This general method involved adding the radioligand (12.5 nM L-[^3 H] glutamate; 0.5 nM [^3 H]kainate or 10 nM [^3 H]AMPA) to the appropriate concentration of the test compound and initiating the assay by the addition of ice cold synaptic plasma membranes (0.2-0.45 mg). The binding assays were performed in 1.5 mL centrifuge tubes with the total volume adjusted to 1.0 mL. Additions of test compounds were made in 50 mM Tris/acetate, pH 7.4 and incubations were carried out at 0°-4° C. The incubation time for the NMDA and the AMPA binding assays was 10 minutes, for the kainate binding assay 60 minutes and for the sodium-dependent glutamate binding assay 15 minutes. The AMPA binding assay contained 100 mM KSCN and the sodium-dependent glutamate binding assay contained 150 mM sodium acetate in addition to the previously described reagents. To terminate the incubation, the samples were centrifuged for 15 minutes at 12,000 g and 4° C. in a Beckman Microfuge 12. The supernatant was aspirated and the pelleted membranes dissolved in Beckman BTS-450 tissue solubilizer for a minimum of 6 hours at room temperature. Beckman MP scintillation cocktail containing 7 mL/1 acetic acid was then added and the samples counted on a Beckman LS 5800 or 3801 liquid scintillation counter with automatic corrections for quenching and counting efficiency. Nonspecific binding was defined as the residual binding in the presence of either excess L-glutamate (0.1-0.4 mM), kainate (0.01 mM), or NMDA (0.5 mM), and was 15-25% of the total binding in the NMDA binding assay, 19-27% in the AMPA binding assay, 20-30% in the kainate binding assay and 10-15% in the sodium-dependent binding assay. Radioligand binding to the synaptic plasma membranes was analyzed using Scatchard and Hill transformations and the Ki values of the compounds determined using logit-log transformations. Calculations and regression analysis were performed using templates developed for Lotus 1, 2, 3 as previously described [Pullan, L. M. "Automated Radioligand Receptor Binding Analysis with Templates for Lotus", Computer Appln. Biosci., 3, 131 (1987)]. Binding results are reported in Table I for example compounds of the invention.

The subject of a further data set is cGMP in cerebellum. The experiment in a line: Assay for Effect on cGMP Levels in Cerebellum. The data set is classed as in vivo, mouse (Swiss-Webster). How it is done:
The purpose of this assay is to determine the extent of in vivo bioavailability and the potency as an NMDA antagonist of compound of the invention as compared to known NMDA antagonists, namely, 3(2-carboxypiperizine-4-yl)propyl-1-phosphonic acid (CPP) and cis-4-phosphonomethyl-2-piperidinecarboxylic acid (CGS 19755). Male Swiss-Webster mice (17-24 g were injected sub-cutaneously (s.c.) with compound of the invention and the known NMDA antagonist standards 30 minutes prior to sacrifice by focussed microwave irradiation. Groups consisted of 7-10 mice. Compounds of Ex. #7 was dissolved in isotonic saline and all compounds were administered in a volume of 0.2 ml per mouse. Cerebella samples were extracted in IN HCl. Hydrochloric acid in extracts of the cerebellum were freeze-dried for assay of cGMP with a commercial RIA kit (NEN). Statistics (Dunett's t-test) were performed as described previously [P. L. Wood et al., Neurochem., 19, 975-982 (1980)]. ED50 values were calculated from log-logit transformation of the dose-response data.

Data set [1] relates to tonic hindlimb extensor seizures. The experiment in a line: Anticonvulsant Assay (electroconvulsive shock). The data set is classed as in vivo, mouse (CD-1). The settings on record: for Protected from ECS (% of Mice): 30 min prior to ECS. The source says: The screens were then slowly inverted. […] The current was held constant at 15 mA. […] There were 10 mice in each treatment group.

The target in data set [2] is TCP (1-[1-(2-thienyl)cyclohexyl]piperidine) binding. The experiment in a line: TCP Modulation Assay. As to conditions: 2 nM tritiated TCP, 0.05 mM L-glutamate, rat brain SPM, pH 7.4, 25° C., 60 min; read-out: TCP Ki IC50. Set-up: species or system rat. How it is done:
The effect on the TCP (1-[1-(2-thienyl)cyclohexyl]piperidine) binding was measured in rat brain synaptic membranes (SPM) prepared as previously described [J. B. Monahah & J. Michel; J. Neurochem. […] Prior to their use in the binding assay, frozen SPM were thawed, diluted twenty fold with 50 mM Tris/acetate (pH 7.4 containing 0.04% (v/v) Triton X-100), incubated for 30 min. at 37° C. and centrifuged at 95,000 xg for 15 min. The Triton X-100 treated SPM were washed with 5 mM Tris/HCl, pH 7.4 and centrifuged a total of six times. […] The samples were filtered through glass fiber filters (Schleicher & Schuell #32) which have been pretreated with 0.05% (v/v) polyethylenimine, washed 4 times with 2 ml of ice-cold 5 mM Tris/HCl buffer, and then counted on a Beckman LS 5800 liquid scintillation counter with automatic corrections for quenching and counting efficiency. Inhibition of TCP binding was measured as a decrease in the binding in the presence of 0.05 mM L-glutamate. Non-specific binding was defined as the residual binding in the presence of […] phencyclidine.

Structures are written as SMILES.

On to `O=C(O)c1cn2c(CP(=O)(O)O)cccc2n1` [Example 7, 5-(phosphonomethyl)imidazo[1,2-a]pyridine-2-carboxylic acid], for which the Ki at AMPA is more than 300 µM; in data set [2], 3.2 µM. Moreover, the ED50 is 18.3 mg/kg with cGMP in cerebellum (Mus musculus, sc, 0.5 h, 30 min prior to sacrifice, read-out: Decrease in cGMP ED50) and 21.8 mg/kg in data set [1] (Mus musculus, sc, 0.5 h, s.c., doses in mg/kg, 95% CI 12.3-32.9, read-out: Protected from ECS ED50). The “brain bioavailability (in words)” value with cGMP in cerebellum (by decrease of cGMP in mouse cerebellum, s.c.) is “brain bioavailable”. Moreover, the “potency relative to CPP (in words)” value with cGMP in cerebellum (s.c., cerebellar cGMP) was “in the same range of potency as the known NMDA antagonist CPP”. Besides, the “Protected from ECS (% of Mice)” value is reported as 20% in data set [1] (10 mg/kg s.c.), 60% in data set [1] (32 mg/kg s.c.), 90% in data set [1] (56 mg/kg s.c.) and 100% in data set [1] (100 mg/kg s.c.). For the same compound, the “protection against tonic hindlimb extensor seizures (in words)” value in data set [1] (s.c.) is “protected against tonic hindlimb extensor seizures in a dose-dependent fashion”.

What is called Ki is the dissociation constant of the complex between target and ligand, obtained from inhibition or displacement. As usually defined, the ED50 is the midpoint of the dose-response relation.
